Assay results reported in patent US11512054B2, “Pesticidal compounds” (BASF SE, priority 2017, dated 2022).

What was measured:
Type in all cases: in vivo
[1] = system: yellow fever mosquito (Aedes aegypti); test: whole plant or invertebrate; details: 48 h, larval mortality visually assessed after 2 days, read-out: mortality in comparison with untreated controls
Protocol: For evaluating control of yellow fever mosquito (Aedes aegypti) the test unit consisted of 96-well-microtiter plates containing 200 μl of tap water per well and 5-15 freshly hatched A. aegypti larvae.
The active compounds or mixtures were formulated using a solution containing 75% (v/v) water and 25% (v/v) DMSO. Different concentrations of formulated compounds or mixtures were sprayed onto the insect diet at 2.5 μl, using a custom built micro atomizer, at two replications. For experimental mixtures in these tests identical volumes of both mixing partners at the desired concentrations respectively, were mixed together.
After application, microtiter plates were incubated at 28±1° C., 80±5% RH for 2 days. Larval mortality was then visually assessed.

[2] = system: Diamond Back Moth (Plutella xylostella); test: Action on diamond back moth, cabbage leaf dip; details: foliar, 3rd instar larvae, 72 hours after treatment, read-out: mortality in comparison with untreated controls
Protocol: The active compound is dissolved at the desired concentration in a mixture of 1:1 (v/v) distilled water:acetone. Surfactant (Kinetic® HV) is added at a rate of 0.01% (v/v). The test solution is prepared at the day of use.
Leaves of cabbage were dipped in test solution and air-dried. Treated leaves were placed in petri dishes lined with moist filter paper and inoculated with ten 3rd instar larvae. Mortality was recorded 72 hours after treatment. Feeding damages were also recorded using a scale of 0-100%.

[3] = system: boll weevil (Anthonomus grandis); test: Action on boll weevil, eggs on insect diet in 96-well microtiter plates; details: 120 h, egg and larval mortality after 5 days, read-out: mortality in comparison with untreated controls
Protocol: For evaluating control of boll weevil (Anthonomus grandis) the test unit consisted of 96-well-microtiter plates containing an insect diet and 5-10 A. grandis eggs.
The compounds were formulated using a solution containing 75% (v/v) water and 25% (v/v) DMSO. Different concentrations of formulated compounds were sprayed onto the insect diet at 5 μl, using a custom built micro atomizer, at two replications.
After application, microtiter plates were incubated at about 25+1° C. and about 75+5% relative humidity for 5 days. Egg and larval mortality was then visually assessed.

[4] = system: tobacco budworm (Heliothis virescens); test: Action on tobacco budworm, eggs on insect diet in 96-well microtiter plates; details: 120 h, egg and larval mortality after 5 days, read-out: mortality in comparison with untreated controls
Protocol: For evaluating control of tobacco budworm (Heliothis virescens) the test unit consisted of 96-well-microtiter plates containing an insect diet and 15-25 H. virescens eggs.
The compounds were formulated using a solution containing 75% v/v water and 25% v/v DMSO. Different concentrations of formulated compounds were sprayed onto the insect diet at 10 μl, using a custom built micro atomizer, at two replications.
After application, microtiter plates were incubated at about 28+1° C. and about 80+5% relative humidity for 5 days. Egg and larval mortality was then visually assessed.

[5] = system: Southern Armyworm (Spodoptera eridania), 2nd Instar Larvae; test: Action on southern armyworm, sprayed lima bean plants; details: 96 h, 2nd instar larvae on lima bean, 4 days after treatment, read-out: mortality in comparison with untreated controls
Protocol: The active compounds were formulated by a Tecan liquid handler in 100% cyclohexanone as a 10,000 ppm solution supplied in tubes. The 10,000 ppm solution was serially diluted in 100% cyclohexanone to make interim solutions. These served as stock solutions for which final dilutions were made by the Tecan in 50% acetone:50% water (v/v) into 10 or 20 ml glass vials. A nonionic surfactant (Kinetic®) was included in the solution at a volume of 0.01% (v/v). The vials were then inserted into an automated electrostatic sprayer equipped with an atomizing nozzle for application to plants/insects.
Lima bean plants (variety Sieva) were grown 2 plants to a pot and selected for treatment at the 1st true leaf stage. Test solutions were sprayed onto the foliage by an automated electrostatic plant sprayer equipped with an atomizing spray nozzle. The plants were dried in the sprayer fume hood and then removed from the sprayer. Each pot was placed into perforated plastic bags with a zip closure. About 10 to 11 armyworm larvae were placed into the bag and the bags zipped closed. Test plants were maintained in a growth room at about 25° C. and about 20-40% relative humidity for 4 days, avoiding direct exposure to fluorescent light (24 hour photoperiod) to prevent trapping of heat inside the bags. Mortality and reduced feeding were assessed 4 days after treatment, compared to untreated control plants.

[6] = system: Orchid Thrips (Dichromothrips corbetti); test: Action on orchid thrips, floral-immersion technique; details: adult thrips, 72 hours after treatment, read-out: mortality in comparison with untreated controls
Protocol: Dichromothrips corbetti adults used for bioassay were obtained from a colony maintained continuously under laboratory conditions. For testing purposes, the test compound is diluted in a 1:1 mixture of acetone:water (vol:vol), plus Kinetic® HV at a rate of 0.01% v/v.
Thrips potency of each compound was evaluated by using a floral-immersion technique. All petals of individual, intact orchid flowers were dipped into treatment solution and allowed to dry in Petri dishes. Treated petals were placed into individual re-sealable plastic along with about 20 adult thrips. All test arenas were held under continuous light and a temperature of about 28° C. for duration of the assay. After 3 days, the numbers of live thrips were counted on each petal. The percent mortality was recorded 72 hours after treatment.

[7] = system: Silverleaf Whitefly (Bemisia argentifoli) (Adults); test: Action on silverleaf whitefly adults, sprayed cotton plants; details: Bemisia argentifolii, 72 h, 3 days after treatment, read-out: mortality in comparison with untreated controls
Protocol: The active compounds were formulated by a Tecan liquid handler in 100% cyclohexanone as a 10,000 ppm solution supplied in tubes. The 10,000 ppm solution was serially diluted in 100% cyclohexanone to make interim solutions. These served as stock solutions for which final dilutions were made by the Tecan in 50% acetone:50% water (v/v) into 5 or 10 ml glass vials. A nonionic surfactant (Kinetic®) was included in the solution at a volume of 0.01% (v/v). The vials were then inserted into an automated electrostatic sprayer equipped with an atomizing nozzle for application to plants/insects.
Cotton plants at the cotyledon stage (one plant per pot) were sprayed by an automated electrostatic plant sprayer equipped with an atomizing spray nozzle. The plants were dried in the sprayer fume hood and then removed from the sprayer. Each pot was placed into a plastic cup and about 10 to 12 whitefly adults (approximately 3-5 days old) were introduced. The insects were collected using an aspirator and a nontoxic Tygon® tubing connected to a barrier pipette tip. The tip, containing the collected insects, was then gently inserted into the soil containing the treated plant, allowing insects to crawl out of the tip to reach the foliage for feeding. Cups were covered with a reusable screened lid. Test plants were maintained in a growth room at about 25° C. and about 20-40% relative humidity for 3 days, avoiding direct exposure to fluorescent light (24 hour photoperiod) to prevent trapping of heat inside the cup. Mortality was assessed 3 days after treatment, compared to untreated control plants.

Row | SMILES | mortality at 800 ppm [1] | mortality at 500 ppm [2] | mortality at 800 ppm [3] | mortality at 800 ppm [4] | mortality at 300 ppm [5] | mortality at 500 ppm [6] | mortality at 300 ppm [7]
1 | CC(C)c1ccccc1N1C(=O)CS/C1=N\N=C\c1ccc2c(C(=N)Nc3ccc(OC(F)(F)F)cc3)nn(C)c2n1 [Example C-27, 6-[(E)-[(Z)-[3-(2-isopropylphenyl)-4-oxo-thiazolidin-2-ylidene]hydrazono]methyl]-1-methyl-N-[4-(trifluoromethoxy)phenyl]pyrazolo[3,4-b]pyridine-3-carboxamidine] | ≥ 50% | ≥ 75% | ≥ 75% | ≥ 75% | ≥ 75% | ≥ 75% | 
2 | CC(C)c1ccccc1N1C(=O)CS/C1=N\N=C\c1ccc2c(C(N)=Nc3ccc(OC(F)(F)F)cc3)nsc2c1 [Example C-21, 6-[(E)-[(Z)-[3-(2-isopropylphenyl)-4-oxo-thiazolidin-2-ylidene]hydrazono]methyl]-N′[4-(trifluoromethoxy)phenyl]-1,2-benzothiazole-3-carboxamidine] | ≥ 50% | ≥ 75% | ≥ 75% | ≥ 75% | ≥ 75% | ≥ 75% | 
3 | CC(C)c1ccccc1N1C(=O)CS/C1=N\N=C\c1ccc2c(/C=N/c3ccc(OC(F)(F)F)cc3)nn(C)c2c1 [Example C-25, (2Z)-3-(2-isopropylphenyl)-2-[(E)-[1-methyl-3-[(E)-[4-(trifluoromethoxy)phenyl]iminomethyl]indazol-6-yl]methylenehydrazono]thiazolidin-4-one] |  | ≥ 75% |  | ≥ 75% |  |  | 
4 | CC(C)c1ccccc1NC(=S)N/N=C/c1ccc2c(/C(N)=N/c3ccc(OC(F)(F)F)cc3)nsc2c1 [Example C-20, 1-(2-isopropylphenyl)-3-[(E)-[3-[(Z)—N′-[4-(trifluoromethoxy)phenyl]carbamimidoyl]-1,2-benzothiazol-6-yl]methyleneamino]thiourea] | ≥ 50% | ≥ 75% | ≥ 75% | ≥ 75% |  | ≥ 75% | 
5 | CC(C)c1ccccc1NC(=S)N/N=C/c1ccc2c(C(=N)Nc3ccc(OC(F)(F)F)cc3)nn(C)c2n1 [Example C-26, 1-(2-isopropylphenyl)-3-[(E)-[1-methyl-3-[N-[4-(trifluoromethoxy)phenyl]carbamimidoyl]pyrazolo[3,4-b]pyridin-6-yl]methyleneamino]thiourea] | ≥ 50% | ≥ 75% | ≥ 75% | ≥ 75% | ≥ 75% | ≥ 75% | 
6 | CC(C)c1ccccc1N1CCCS/C1=N\N=C\c1ccc2c(C(=N)Nc3ccc(OC(F)(F)F)cc3)nn(C)c2c1 [Example C-37, 6-[(E)-[(Z)-[3-(2-isopropylphenyl)-1,3-thiazinan-2-ylidene]hydrazono]methyl]-1-methyl-N-[4-(trifluoromethoxy)phenyl]indazole-3-carboxamidine] | ≥ 50% | ≥ 75% | ≥ 75% | ≥ 75% |  | ≥ 75% | 
7 | CC(C)c1ccccc1NC(=S)N/N=C/c1ccc2c(/C=N/c3ccc(OC(F)(F)F)cc3)nn(C)c2c1 [Example C-24, 1-(2-isopropylphenyl)-3-[(E)-[1-methyl-3-[(E)-[4-(trifluoromethoxy)phenyl]iminomethyl]indazol-6-yl]methyleneamino]thiourea] | ≥ 50% | ≥ 75% |  | ≥ 75% |  |  | 
8 | C/N=C(/c1nn(C)c2cc(/C=N/NC(=S)Nc3ccccc3C(C)C)ccc12)N(C)c1ccc(OC(F)(F)F)cc1 [Example C-3, 1-[(E)-[3-[(Z)—N,N′-dimethyl-N-[4-(trifluoromethoxy)phenyl]carbamimidoyl]-1-methyl-indazol-6-yl]methyleneamino]-3-(2-isopropylphenyl)thiourea] | ≥ 50% | ≥ 75% | ≥ 75% | ≥ 75% |  | ≥ 75% | 
9 | CON=C(Nc1ccc(OC(F)(F)F)cc1)c1nn(C)c2cc(/C=N/N=C3\SC(=O)CN3c3ccccc3C(C)C)ccc12 [Example C-6, 6-[(E)-[(Z)-[3-(2-isopropylphenyl)-5-oxo-thiazolidin-2-ylidene]hydrazono]methyl]-N′-methoxy-1-methyl-N-[4-(trifluoromethoxy)phenyl]indazole-3-carboxamidine] | ≥ 50% | ≥ 75% | ≥ 75% | ≥ 75% | ≥ 75% | ≥ 75% | 
10 | CO[C@@H]1[C@@H](OC)[C@H](C)O[C@@H](OC(=O)Nc2ccc3c(C(=S)N(C)c4ccc(OC(F)(F)F)cc4)nn(C)c3c2)[C@@H]1OC [Example C-4, [(2S,3R,4R,5S,6S)-3,4,5-trimethoxy-6-methyl-tetrahydropyran-2-yl]N-[1-methyl-3-[methyl-[4-(trifluoromethoxy)phenyl]carbamothioyl]indazol-6-yl]carbamate] | ≥ 50% | ≥ 75% | ≥ 75% | ≥ 75% |  | ≥ 75% | ≥ 75%
11 | CC(C)c1ccccc1N1CCS/C1=N\N=C\c1ccc2c(C(=N)Nc3ccc(OC(F)(F)F)cc3)nn(C)c2c1 [Example C-36, 6-[(E)-[(Z)-[3-(2-isopropylphenyl)thiazolidin-2-ylidene]hydrazono]methyl]-1-methyl-N-[4-(trifluoromethoxy)phenyl]indazole-3-carboxamidine] | ≥ 50% | ≥ 75% | ≥ 75% | ≥ 75% |  | ≥ 75% | 
